Patent US20110034472A1, “Novel Compounds for Treatment of Cancer and Disorders Associated With Angiogenesis Function” (UNIVERSITY OF SOUTHERN CALIFORNIA, priority 2004, published 2011)

system: HEY ovarian cancer cells; assay: MTT cytotoxicity assay, HEY; type: cell-based, human; conditions: HEY ovarian cancer cells; read-out: 50% Cytotoxic concentration (IC50)
Description: The sensitivity of a panel of seven human cancer cell lines to SC144 was assessed by MTT-assay. […] The sensitivity towards SC144 was time- and dose-dependent.
Cytotoxicity was assessed by a 3-(4,5-dimethylthiazol-2-yl)-2,5-diphenyltetrazolium bromide assay as previously described (Carmichael et al. (1987) Cancer Res. 47:936-42). Briefly, cells were seeded in 96-well microtiter plates (PC3 and DU145 at 5,000 cells/well and LNCaP at 10,000 cells/well; breast and ovarian cells at 4,000 cells/well) and allowed to attach. Cells were subsequently treated with a continuous exposure to the corresponding drug for 72 hours. A 3-(4,5-dimethylthiazol-2-yl)-2,5-diphenyltetrazolium bromide solution (at a final concentration of 0.5 mg/mL) was added to each well and cells were incubated for 4 hours at 37° C. After removal of the medium, DMSO was added and the absorbance was read at 570 nm. All assays were done in triplicate. The IC50 was then determined for each drug from a plot of log(drug concentration) versus percentage of cell kill.

`COCc1c(C(=O)NNC(=O)c2ccccc2F)nnn1-c1nonc1N` [SC204] and `O=C(COc1ccc2ccccc2c1)NNC(=O)c1cc2ccccc2cc1O` [SC210] are the same in IC50: 1 µM for the first, 1 µM for the second.

same assay, conditions: Homo sapiens; HEY ovarian cancer cells; read-out: 50% Cytotoxic concentration (IC50)

`Cc1ccc(C(=O)NNC(=O)c2c(O)c3ccccc3[nH]c2=O)cc1` [SC278] and `O=C(NNC(=O)c1c(O)c2ccccc2[nH]c1=O)c1ccccc1` [SC268] are within 1.5-fold of each other in IC50: 13 µM for the first, 10 µM for the second.

`O=C(NNC(=O)c1ccccc1O)c1cccs1` [SC255] and `O=C(NNC(=O)c1cccs1)c1ccc2ccccc2c1` [SC262] are within 1.5-fold of each other in IC50: 14 µM for the first, 11 µM for the second.

Going from `Cc1ccc(-n2c(SCC(=O)NNC(=O)Cc3ccccc3)nc3sc4c(c3c2=O)CCCC4)cc1` [SC249] to `O=C(CSc1nnc2c3c4c(sc3ncn12)CCCC4)NNC(=O)c1ccco1` [SC247], the IC50 rises from 2 µM to 14 µM (7-fold).

`COc1ccccc1C(=O)NNC(=O)c1cc2ccccc2cc1O` [SC274] and `COc1ccccc1C(=O)NNC(=O)c1ccccc1O` [SC260] are within 1.5-fold of each other in IC50: 11 µM for the first, 10 µM for the second.

Going from `COc1ccc(C(=O)NNC(=O)c2ccc3ccccc3c2O)cc1` [SC275] to `COc1cccc(C(=O)NNC(=O)c2ccc3ccccc3c2O)c1` [SC272], the IC50 falls from 12 µM to 7 µM (1.7-fold). The second is the more potent here.

Going from `O=C(NNC(=O)c1c(O)c2ccccc2[nH]c1=O)c1ccccc1F` [SC279] to `CCn1c(=O)c(C(=O)NNC(=O)c2ccccc2F)c(O)c2ccccc21` [SC225], the IC50 falls from 6 µM to 2 µM (3-fold). The second is the more potent here.

`CCn1c(=O)c(C(=O)NNC(=O)c2cccc([N+](=O)[O-])c2)c(O)c2ccccc21` [SC218] and `CCn1c(=O)c(C(=O)NNC(=O)c2ccc([N+](=O)[O-])cc2)c(O)c2ccccc21` [SC216] are within 1.5-fold of each other in IC50: 4 µM for the first, 5 µM for the second.

First: CCCCCCCCCC(=O)NNC(=O)c1c(O)c2ccccc2[nH]c1=O [SC237]
Second: CCCCCCCC(=O)NNC(=O)c1c(O)c2ccccc2n(CC)c1=O [SC231]
The IC50 of the first is 2.3-fold higher: 7 µM for the first, 3 µM for the second.

Compared with `Cc1cccc(C(=O)NNC(=O)CSc2nc(-c3ccccc3)nc3ccc(F)cc23)c1` [SC234], `Cc1cccc(C(=O)NNC(=O)CSc2nc3ccccc3cc2C)c1` [SC213] is 1.5-fold higher in IC50: 8 µM for the first, 12 µM for the second. The first is the more potent here.

Going from `O=C(NNC(=O)c1cc2ccccc2oc1=O)c1ccncc1` [SC266] to `COc1ccccc1C(=O)NNC(=O)c1ccc2ccccc2c1O` [SC273], the IC50 rises from 7 µM to 11 µM (1.6-fold). The first is the more potent here.

Compared with `O=C(CSC1=NNC2C3=C(N=C(C4CC4)N12)S1=C(CCCC1)C3)NNC(=O)C1C=CC=CO1` (centres unmarked) [SC244], `O=C(CSc1nc2ccccc2c(=O)n1CC1CCCO1)NNC(=O)c1ccccc1O` (centres unmarked) is 7.5-fold lower in IC50: 15 µM for the first, 2 µM for the second. The second is the more potent here.

First: O=C(CCl)NNc1nc(-c2ccccc2)c2cc(Cl)ccc2n1 [SC280]
Second: CCCn1c(=O)c(C(=O)NNC(=O)c2ccccc2)c(O)c2ccccc21 [SC201]
The IC50 of the first is 3-fold higher: 6 µM for the first, 2 µM for the second. The second is the more potent here.

First: CC1CCN(S(=O)(=O)c2ccc(C(=O)NNC(=O)C3CC3)cc2)CC1 [SC209]
Second: Cc1ccc(-n2c(SCC(=O)NNC(=O)c3ccccc3O)nnc2-c2ccccc2)cc1 [SC240]
The IC50 of the first is 1.6-fold higher: 8 µM for the first, 5 µM for the second.

For `O=C(CSc1nnc(-c2ccccc2O)o1)NNC(=O)Cc1ccccc1` [SC208], the IC50 was 4 µM.
